Reference: patent US8629242B2, “Methods of inhibiting calcineurin with ApoE analogs” (Cognosci, Inc., priority 2007, dated 2014)
Like-named read-outs stand apart in the source and are kept apart here. Values belong to the molecule of their own block, whether it stands above or below them. Where a SMILES comes first, the peptide text is derived from it. [ ]: non-standard residue; d: D form. Arg(NO2) = N=C(NCCC[C@H](N)C(=O)O)N[N+](=O)[O-]; Aib = CC(C)(N)C(=O)O

Key:
[1] = tested on: oligodendrocyte precursor cells (OPC)/microglia mixed culture; assay: LPS-induced OPC cell death in OPC/microglia mixed culture; assay type: cell-based, rat; conditions: 1 μM, LPS 10 ng/ml, 24 hours
Experimental: FIG. 9. COG 112 protects OPCs from LPS-induced cell death in OPC/microglia mixed culture. LPS (final conc. 10 ng/ml) was added to an OPC/microglia mixed culture with or without 1 μM COG 112. The prefix peptide of COG 112, antennapedia, was used as a negative control. Cells were fixed with 4% formaldehyde and stained with the OPC marker, NG2, and counterstained with hoescht. (A) LPS-treated cultures; (B) LPS+antennapedia (Antp)-treated cultures; (C) LPS+COG 112-treated cultures; (D) Bar graph summarizing the number of NG2+ cells per field in each condition. ** p<0.01.
FIG. 19. COG 345 promotes remyelination in lysolecithin-induced demyelination model of cerebellum slices. Significant demyelination was induced by lysolecithin (0.5 mg/ml) in cerebellar slices. COG 112 or COG 345 (1 μM) was added on day 3 when full demyelination was achieved. 4 days later, the slices were fixed and double stained with myelin marker MBP (green) and Purkinje cell marker calbindin (red). (A) Untreated-slices; (B) lysolecithin-treated slices; (C) COG 112-treated slices after lysolecithin exposure; (D) COG 345-treated slices after lysolecithin exposure. E-F. ApoE analogs protect OPCs from LPS-induced cell death in OPC/microglia mixed culture. OPCs and microglia derived from brain culture of P2 rat pups were plated in 96-well plates in 1:1 ratio. LPS (10 ng/ml) together with 1 μM of the indicated ApoE analogs was added to the cultures. After 24 hours, OPC cell death was quantified by LDH assay (E) and MTT assay (F). Statistical analysis was conducted by one-way ANOVA followed by Dunnett comparison vs. LPS group. * P<0.01, ** P<0.001, n=3.
A primary culture prepared from the brains of P2 Sprague-Dawley rat pups was grown for seven days. Microglia and OPCs were shaken off from the primary culture with an orbital shaker at 150˜200 rpm. The OPCs and microglia were plated in 24-well plates at a 1:1 ratio with 5×10^4 cells per well of each cell type. After 24 hours, LPS (final conc. 10 ng/ml) was added with or without 1 μM COG 112. The prefix peptide of COG 112, antennapedia, was used as a negative control. After incubation for 72 hours, the medium was removed and cells were fixed with 4% formaldehyde and stained with the OPC marker, NG2, and counterstained with hoescht. Five fields from each of the wells were randomly chosen to count the number of NG2-positive cells.
To further assess the ability of the novel ApoE analogs to promote remyelination, the effect of the analogs on OPC survival was assessed in an OPC/microglia mixed culture. OPC and microglia derived from primary culture of P2 rat pup brain were plated on 96-well plates in 1:1 ratio. […] After 24 hours, cell death of OPC was quantified by both LDH and MTT assays.

Maximum tolerated dose = assay type: in vivo; conditions: in vivo
Text: To fully evaluate the use of ApoE analogs as therapeutic compounds, the margin of safety should also be determined. Towards that end, we determined the maximum tolerated dose of COG 112, COG 248, and COG 345 when administered by intravenous and subcutaneous injection.

[2] = tested on: PLP-induced relapsing-remitting experimental autoimmune encephalomyelitis (EAE) model; assay: PLP-induced relapsing-remitting EAE model; assay type: in vivo; design: CSmax during relapse (mean ± SEM) / Area under curve (mean ± SEM): scale not given here; conditions: 4 mg/kg s.c.
Experimental: To further compare the activity of the various ApoE analogs, the efficacy of the analogs was assessed in a PLP-induced relapsing-remitting experimental autoimmune encephalomyelitis (EAE) model. […] The second dose was administered the next day followed by three times a week (M, W, F). Relapse rate represents the number of animals experiencing a relapse, while the CSmax indicates the maximal clinical score during relapse. Area under curve represents the area under the curve in a plot of clinical score vs. days post-inoculation (out to 60 days). […] The improvement in relapse rate and clinical score in the EAE model by ApoE analog treatment may be due, in part, to the remyelination-promoting effect of the ApoE analogs.

Calcineurin = biological target: T1, Calcineurin (Homo sapiens, UniProt Q08209); assay: Cell-free calcineurin phosphatase activity assay (BioMol kit); assay type: biochemical; conditions: various concentrations
T1 construct: purchased BioMol AK-804
Experimental: FIG. 14. ApoE analogs bind directly to calcineurin and inhibit its activity. […] (B) Immunoprecipitation of human brain lysate with a biotin-COG 133 conjugate. Lane 1=markers; lane 2=clear bead; lane 3=biotin-COG 133 bead conjugate; and lane 4=10 μg lysate. (C) Immunoprecipitation of different glial cultures with a biotin-COG 133 conjugate. Lane 1=markers; lane 2=astrocyte; lane 3=microglia; and lane 4=oligodendrocyte precursor cells (OPC). Blots in B and C were probed for calcineurin (PP2B).
Calcineurin activity was measured in a cell-free in vitro assay in the presence of various concentrations of COG 133 (SEQ ID NO: 1), COG 112 (SEQ ID NO: 5), COG 68 (SEQ ID NO: 7), COG 125 (Ac-AS(Aib)LRKL(Aib)KR—COOH; SEQ ID NO: 8), or antennapedia (antp), the prefix peptide for COG 112. […] Using a BioMol Calcineurin Phosphatase Activity Kit (Cat. #AK-804), the assay was conducted according to manufacturer's instructions. […] This inhibition of calcineurin activity by ApoE analogs is mediated by a direct interaction of the ApoE analog with the phosphatase.

[3] = Anti-inflammatory properties in vitro or in vivo (general statement)
Text: The following ApoE analogs, COG 112, COG 1410, COG 241, COG 248, COG 68, and COG 345, have been identified as having improved properties as compared to the ApoE peptide, COG 133.

microglia cell line BV2 = assay: LPS-induced NO and TNF-α release in BV2 microglia; assay type: cell-based, murine; conditions: LPS 10 ng/ml, 24 hours
Experimental: FIG. 16. […] Series concentrations of ApoE analogs were added to culture medium together with LPS (10 ng/ml). 24 hours later, culture medium was collected for measurement of NO by Griess assay or TNF-α by ELISA. […] ApoE analogs (10 μM) were added to the cell medium of human macrophage U937 5 minutes prior to PMA+LPS treatment. The release of superoxide in culture medium was measured by Luminol assay kit (Calbiochem).
The murine microglia cell line BV2 was used as the first screening platform to compare the potency of ApoE analogs in anti-inflammatory activity. In response to LPS, BV2 produces amounts of reactive radical NO and inflammatory cytokines, such as TNF-α and IL-6. We stimulated the cells with LPS (10 ng/ml) in the presence of several concentrations of each of the ApoE analogs. We measured NO in medium by Griess assay and TNF-α by ELISA 24 hours after LPS stimulation of the cells. The IC50 value was calculated for each of the ApoE analogs.

enriched OPC cultures = assay: Number of mature oligodendrocytes after differentiation of enriched OPC culture; assay type: cell-based, rat; conditions: 2 μM COG 133, 1 μM COG 112 or 1 μM COG 68 for four days, then six days differentiation without analog
Experimental: FIG. 11. ApoE analogs increase the number of mature oligodendrocytes in culture. ApoE analogs (COG 133, COG 112, and COG 68) were added to enriched OPC culture in proliferation media for four days. Cultures were then differentiated in the absence of the ApoE analogs. Cells were labeled with a GST-π antibody to detect mature oligodendrocytes.
Since COG 112 increased the proliferation of OPCs, we next examined whether the ApoE analogs could also increase the number of mature oligodendrocytes. Enriched OPC cultures were prepared as described for the previous experiment. 2 μM COG 133 (SEQ ID NO: 1), 1 μM COG 112 (SEQ ID NO: 5), or 1 μM COG 68 (Ac-[…]-NH2; SEQ ID NO: 7) were added to the enriched OPC cultures in proliferation media for four days. The media was then replaced with differentiation medium without the ApoE analogs for an additional six days. Cells were labeled with a GST-π antibody to detect mature oligodendrocytes.

Molecule: CCCCCCCCc1ccc(CCC(N)(CO)CO)cc1 [FTY720, reference compound]
OPC cell death by LDH and MTT assays [1]: did not show a clear protective effect

Molecule: CC(=O)N[C@@H](CC(C)C)C(=O)N[C@@H](CCCNC(=N)N)C(=O)N[C@H](C(=O)N[C@@H](CCCNC(=N)N)C(=O)N[C@@H](CC(C)C)C(=O)N[C@@H](C)C(=O)N[C@@H](CO)C(=O)NC(C)(C)C(=O)N[C@@H](CC(C)C)C(=O)N[C@@H](CCCNC(=N)N)C(=O)N[C@@H](CCCCN)C(=O)N[C@@H](CC(C)C)C(=O)N[C@@H](CCCNC(=N)N)C(=O)N[C@@H](CCCCN)C(=O)N[C@@H](CCCNC(=N)N[N+](=O)[O-])C(=O)N[C@@H](CC(C)C)C(=O)N[C@@H](CC(C)C)C(N)=O)C(C)C [COG 248, acetyl-LRVRLAS-Aib-LRKLRK(nitro-Arg)LL-amide] (Ac-LRVRLAS[Aib]LRKLRK[Arg(NO2)]LL-NH2)
MTD (Maximum tolerated dose; sc, subcutaneous injection, read-out: Maximum Tolerated Dose Subcutaneous): > 150 mg/kg
MTD (Maximum tolerated dose; intravenous injection, read-out: Maximum Tolerated Dose Intravenous): 25 mg/kg

Molecule: acetyl-Aib-LRKL-Aib-(n acetyl K)RLL-amide (Ac-[Aib]LRKL[Aib]K(Ac)RLL-NH2; SMILES CC(=O)NCCCC[C@H](NC(=O)C(C)(C)NC(=O)[C@H](CC(C)C)NC(=O)[C@H](CCCCN)NC(=O)[C@H](CCCNC(=N)N)NC(=O)[C@H](CC(C)C)NC(=O)C(C)(C)NC(C)=O)C(=O)N[C@@H](CCCNC(=N)N)C(=O)N[C@@H](CC(C)C)C(=O)N[C@@H](CC(C)C)C(N)=O) [COG 241]
Area under curve (mean ± SEM) ([2]; clinical score vs days post-inoculation, out to 60 days): 13.5 ± 2.6
CSmax during relapse (mean ± SEM) ([2]; maximal clinical score during relapse): 2.3 ± 0.8
Relapse Rate ([2]; number of animals experiencing a relapse): 8/15

inhibition of calcineurin activity (Calcineurin): Inactive
Molecule: acetyl-AS-Aib-LRKL-Aib-KR-amide (Ac-AS[Aib]LRKL[Aib]KR-NH2; SMILES CC(=O)N[C@@H](C)C(=O)N[C@@H](CO)C(=O)NC(C)(C)C(=O)N[C@@H](CC(C)C)C(=O)N[C@@H](CCCNC(=N)N)C(=O)N[C@@H](CCCCN)C(=O)N[C@@H](CC(C)C)C(=O)NC(C)(C)C(=O)N[C@@H](CCCCN)C(=O)N[C@@H](CCCNC(=N)N)C(N)=O) [COG 125, reference compound]
anti-inflammatory properties [3]: did not exhibit any anti-inflammatory properties

Molecule: acetyl-AS-Aib-LRKL-Aib-KRLL-amide [COG 1410]
activity in suppression of microglia activation (NO by Griess assay, TNF-α by ELISA) (microglia cell line BV2): clearly superior to that of COG 133

inhibition of calcineurin activity (Calcineurin): dose-dependent inhibition
Molecule: acetyl-RRLSYSRRRFLRVRLASHLRKLRKRLL-amide (Ac-RRLSYSRRRFLRVRLASHLRKLRKRLL-NH2) [COG 68, ApoE peptide linked to the protein transduction domain SynB3]
number of mature oligodendrocytes (GST-π) (enriched OPC cultures): significantly increased the number of mature oligodendrocytes
activity in suppression of microglia activation (NO by Griess assay, TNF-α by ELISA) (microglia cell line BV2): clearly superior to that of COG 133
